Data published in US8663669B2, “Pesticide treatment of soils or substrates with sulphur compounds” (Arkema France, priority 2002, dated 2014).

Assay: Diffusion of DMDS into the soil (column of earth, gas chromatography)
Type: physicochemical
Method: The rate of diffusion of DMDS was studied by filling a sealed thermal glass chamber of 3.3 litres and 40 cm in height with 2.5 litres of earth (that is 33 cm) obtained from the Garonne valley (sandy-muddy soil containing 1.6% of organic matter); the DMDS was deposited at the surface of the earth in 2 doses: 300 and 800 kg/ha, that is, considering a disinfection over 30 cm, doses of 100 and 266.6 g/m^3 of soil. There are then measured by gas chromatography, as a function of time (in hours), the concentrations of DMDS in gaseous form (in g/m^3) in the top free volume of the chamber (point A) and at 11 cm (point B), 22 cm (point C) and 33 cm (point D) below the level of the earth by means of 3 openings equipped with sealed septums on the side of the chamber; the variation in the concentration as a function of time for the 4 measurement points is thus obtained, as shown in Table 2 in the case of the 800 kg/ha dose.
The product CT of the concentrations C by the time of measurement T is another essential data which indicates the cumulative doses of DMDS to which are subjected the pathogenic organisms which may be present at the different measurement points. The CT values in gh/m^3 indicated in Table 3 are thus found for the two concentrations tested.

## CSSC [DMDS, dimethyl disulphide]
300 kg/ha, A (0 cm)
  CT (product of concentrations C by time T): 3187 gh/m^3
300 kg/ha, B (−11 cm)
  CT (product of concentrations C by time T): 2737 gh/m^3
300 kg/ha, C (−22 cm)
  CT (product of concentrations C by time T): 2753 gh/m^3
300 kg/ha, D (−33 cm)
  CT (product of concentrations C by time T): 2210 gh/m^3
800 kg/ha dose, 0 h, A (0 cm)
  DMDS concentration in gaseous form: 0 g/m^3
800 kg/ha dose, 0 h, B (−11 cm)
  DMDS concentration in gaseous form: 0 g/m^3
800 kg/ha dose, 0 h, C (−22 cm)
  DMDS concentration in gaseous form: 0 g/m^3
800 kg/ha dose, 0 h, D (−33 cm)
  DMDS concentration in gaseous form: 0 g/m^3
800 kg/ha dose, 33 cm of earth
  Time for the DMDS concentration to be homogeneous in the entire thickness of the column of earth: approximately 24 hours
800 kg/ha dose, 1 h, A (0 cm)
  DMDS concentration in gaseous form: 144.9 g/m^3
800 kg/ha dose, 1 h, B (−11 cm)
  DMDS concentration in gaseous form: 76.6 g/m^3
800 kg/ha dose, 1 h, C (−22 cm)
  DMDS concentration in gaseous form: 3 g/m^3
800 kg/ha dose, 1 h, D (−33 cm)
  DMDS concentration in gaseous form: 0 g/m^3
800 kg/ha dose, 3 h, A (0 cm)
  DMDS concentration in gaseous form: 152.7 g/m^3
800 kg/ha dose, 3 h, B (−11 cm)
  DMDS concentration in gaseous form: 73.9 g/m^3
800 kg/ha dose, 3 h, C (−22 cm)
  DMDS concentration in gaseous form: 5.1 g/m^3
800 kg/ha dose, 3 h, D (−33 cm)
  DMDS concentration in gaseous form: 0.3 g/m^3
800 kg/ha dose, 5 h, A (0 cm)
  DMDS concentration in gaseous form: 96.3 g/m^3
800 kg/ha dose, 5 h, B (−11 cm)
  DMDS concentration in gaseous form: 63.8 g/m^3
800 kg/ha dose, 5 h, C (−22 cm)
  DMDS concentration in gaseous form: 48.4 g/m^3
800 kg/ha dose, 5 h, D (−33 cm)
  DMDS concentration in gaseous form: 21.5 g/m^3
800 kg/ha dose, 5.5 h, A (0 cm)
  DMDS concentration in gaseous form: 123.7 g/m^3
800 kg/ha dose, 5.5 h, B (−11 cm)
  DMDS concentration in gaseous form: 91.4 g/m^3
800 kg/ha dose, 5.5 h, C (−22 cm)
  DMDS concentration in gaseous form: 58.3 g/m^3
800 kg/ha dose, 5.5 h, D (−33 cm)
  DMDS concentration in gaseous form: 29.4 g/m^3
800 kg/ha dose, 24 h, A (0 cm)
  DMDS concentration in gaseous form: 32.7 g/m^3
800 kg/ha dose, 24 h, B (−11 cm)
  DMDS concentration in gaseous form: 30.2 g/m^3
800 kg/ha dose, 24 h, C (−22 cm)
  DMDS concentration in gaseous form: 40.1 g/m^3
800 kg/ha dose, 24 h, D (−33 cm)
  DMDS concentration in gaseous form: 34.4 g/m^3
800 kg/ha dose, 96 h, A (0 cm)
  DMDS concentration in gaseous form: 11.8 g/m^3
800 kg/ha dose, 96 h, B (−11 cm)
  DMDS concentration in gaseous form: 11.5 g/m^3
800 kg/ha dose, 96 h, C (−22 cm)
  DMDS concentration in gaseous form: 12.9 g/m^3
800 kg/ha dose, 96 h, D (−33 cm)
  DMDS concentration in gaseous form: 14.6 g/m^3
800 kg/ha, A (0 cm)
  CT (product of concentrations C by time T): 4145 gh/m^3
800 kg/ha, B (−11 cm)
  CT (product of concentrations C by time T): 3327 gh/m^3
800 kg/ha, C (−22 cm)
  CT (product of concentrations C by time T): 3276 gh/m^3
800 kg/ha, D (−33 cm)
  CT (product of concentrations C by time T): 2809 gh/m^3
Dose of 300 kg/ha
  CT values, order of magnitude: ~2 500 gh/m^3
Dose of 800 kg/ha
  CT values, order of magnitude: ~3 000 gh/m^3
